For twelve compounds, GI50 and TGI results are on record in PubChem BioAssay (NCI).

Among the test systems are MDA-MB-435; EKVX NSCLC; T-47D breast; UACC-257 melanoma; SK-OV-3 ovarian; BT-549 breast; MCF7 breast; M19-MEL melanoma.
Common to all, as to test: NCI tumour cell line growth inhibition, 48 h

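Cells were grown in 96-well plates and exposed to each compound for 48 hours at five concentrations; endpoints were interpolated linearly between bracketing concentrations, or set to the highest concentration if not reached. At the GI50, growth is halved. TGI: concentration producing complete growth inhibition.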

Consider `CCN1CCN(c2nc(C)cc(N(CCCNc3ccnc4cc(Cl)ccc34)Cc3ccco3)n2)CC1`, for which the GI50 with MDA-MB-435 is 1.7 µM; in the assay with EKVX NSCLC, 7.67 µM; in the assay with T-47D breast it was 1.97 µM; in the assay on UACC-257 melanoma it was 1.95 µM; in the assay with SK-OV-3 ovarian, 7.82 µM; in the assay on BT-549 breast, 2.03 µM. For the same compound, the GI50 with MCF7 breast is 2.98 µM. Further, the TGI was found to be 3.24 µM in the assay with MDA-MB-435; 25.3 µM with EKVX NSCLC; 5.55 µM with T-47D breast; 3.79 µM in the assay on UACC-257 melanoma; 30.7 µM in the assay with SK-OV-3 ovarian; 5.99 µM with BT-549 breast. In the assay on MCF7 breast, this compound came in with a TGI of 14.8 µM.

On to `CC1(C)CC(O)CCCCCCOc2c(CN)cccc2NC(=O)c2nc(cnc2N)-c2ccc(cc2)S1(=O)=O` (stereo not drawn), for which the GI50 with MDA-MB-435 was 0.558 µM; with EKVX NSCLC, 1.93 µM; with T-47D breast, 1.67 µM; in the assay on UACC-257 melanoma, 1.52 µM; in the assay with SK-OV-3 ovarian, 2.22 µM; with BT-549 breast it was 1.25 µM. For the same compound, in the assay on MCF7 breast, the GI50 was below 0.01 µM. Also, the TGI in the assay with MDA-MB-435 is 2.16 µM; in the assay with EKVX NSCLC, 5.78 µM; in the assay on T-47D breast it was 4.15 µM; with UACC-257 melanoma, 3.4 µM; in the assay on SK-OV-3 ovarian it was 15.8 µM; in the assay on BT-549 breast, 2.85 µM. This compound also displayed a TGI in the assay on MCF7 breast of 1.81 µM.

On to `NC(=O)C12CCC1C1CCCCC12N1CCOCC1` (stereo not drawn), for which the TGI with M19-MEL melanoma, in the assay on EKVX NSCLC and in the assay on SK-OV-3 ovarian was above 100 µM each time.

Turning to `CCN1CCN(c2cc(C)nc(NCc3cc(Nc4ccnc5cc(Cl)ccc45)ccc3F)n2)CC1`, the GI50 in the assay on MDA-MB-435 was 2.22 µM; in the assay with EKVX NSCLC it was 5.45 µM; in the assay with T-47D breast, 1.42 µM; in the assay with UACC-257 melanoma, 2.17 µM; with SK-OV-3 ovarian it was 27.6 µM; in the assay on BT-549 breast it was 5.36 µM. Moreover, in the assay on MCF7 breast, the GI50 is 0.302 µM. Besides, the TGI in the assay with MDA-MB-435 is 5.99 µM; in the assay on EKVX NSCLC, above 100 µM; in the assay on T-47D breast, 4.31 µM; with UACC-257 melanoma, 4.33 µM; in the assay with SK-OV-3 ovarian, 69.3 µM; in the assay with BT-549 breast it was 21.8 µM. This compound had a TGI in the assay with MCF7 breast of 16.9 µM.

With `O=C(O)CCc1nc(-c2ccccc2)c(-c2ccccc2)o1`, the TGI in the assay on MDA-MB-435, with EKVX NSCLC, in the assay on T-47D breast, in the assay on UACC-257 melanoma, with SK-OV-3 ovarian and in the assay with BT-549 breast was above 100 µM throughout. Besides, the TGI in the assay on MCF7 breast is above 100 µM.

Consider `CO[C@H]1/C=C/C[C@H](C)[C@@H](C)S(=O)(=O)NC(=O)c2ccc3c(c2)N(C[C@@H]2CC[C@H]21)C[C@@]1(CCCc2cc(Cl)ccc21)CO3`, for which the GI50 with MDA-MB-435 was 1.48 µM; with EKVX NSCLC it was 1.91 µM; with T-47D breast, 2.75 µM; in the assay with UACC-257 melanoma it was 2.99 µM; with SK-OV-3 ovarian, 3.5 µM; with BT-549 breast, 2.23 µM. Besides, the GI50 with MCF7 breast was 1.43 µM. For the same compound, the TGI came out at 3.14 µM in the assay on MDA-MB-435; 6.76 µM in the assay with EKVX NSCLC; 10.8 µM in the assay on T-47D breast; 9.69 µM in the assay on UACC-257 melanoma; 12.6 µM in the assay with SK-OV-3 ovarian; 6.99 µM in the assay on BT-549 breast. For the same compound, the TGI with MCF7 breast came out at 9.77 µM.

Turning to `O=C(Nc1ccc([N+](=O)[O-])cc1)c1cc2ccccc2cc1O`, the GI50 with MDA-MB-435 was 0.321 µM; in the assay on EKVX NSCLC, 0.322 µM; in the assay on T-47D breast, 0.39 µM; in the assay with UACC-257 melanoma, 0.313 µM; in the assay on SK-OV-3 ovarian, 0.384 µM; in the assay with BT-549 breast, 0.444 µM. Further, the GI50 in the assay with MCF7 breast was 1.32 µM. Moreover, the TGI turned out to be 1.64 µM in the assay on MDA-MB-435; 3 µM in the assay with EKVX NSCLC; 8.89 µM with T-47D breast; 1.48 µM in the assay with UACC-257 melanoma; 15.7 µM with SK-OV-3 ovarian; 2.43 µM with BT-549 breast. In addition, the TGI in the assay with MCF7 breast is 11.3 µM.

For `OCCCCC#Cc1ccccc1C#Cc1cccs1`, the GI50 in the assay with MDA-MB-435 is 16.6 µM; with EKVX NSCLC, 10.8 µM; with T-47D breast it was 1.18 µM; in the assay on UACC-257 melanoma, 18.8 µM; in the assay with SK-OV-3 ovarian, 15.5 µM; in the assay on BT-549 breast it was 12.4 µM. The GI50 in the assay with MCF7 breast is 1.88 µM. Also, the TGI in the assay with MDA-MB-435 amounted to 30.8 µM; with EKVX NSCLC, 23.9 µM; in the assay on T-47D breast it was 23.2 µM; with UACC-257 melanoma it was 33 µM; in the assay with SK-OV-3 ovarian, 30.6 µM; in the assay with BT-549 breast, 25.4 µM. Moreover, the TGI in the assay with MCF7 breast worked out at 29.1 µM.

With `Cc1cc(Cl)ccc1Nc1nc(C(F)(F)F)ccc1C(=O)N/N=C/c1ccc(N(C)C)cc1`, the GI50 in the assay on MDA-MB-435 is 4.02 µM; in the assay with EKVX NSCLC, 0.746 µM; with T-47D breast it was 1.2 µM; in the assay with UACC-257 melanoma, 4.97 µM; with SK-OV-3 ovarian, 2.19 µM; in the assay on BT-549 breast it was 0.624 µM. The GI50 in the assay with MCF7 breast is 1.9 µM. Moreover, the TGI in the assay on MDA-MB-435 was above 100 µM; with EKVX NSCLC, above 100 µM; in the assay on T-47D breast it was above 100 µM; in the assay on UACC-257 melanoma, above 100 µM; with SK-OV-3 ovarian, above 100 µM; in the assay on BT-549 breast, 6.78 µM. The same compound yielded a TGI in the assay with MCF7 breast above 100 µM.

For `CN(C)C(=S)/N=c1\ssc(=S)n1Cc1ccccn1`, the TGI with M19-MEL melanoma, in the assay with EKVX NSCLC, in the assay on UACC-257 melanoma and in the assay on SK-OV-3 ovarian was above 100 µM throughout.

In the case of `CN(C)CCN1C(=O)c2cccc3c(-c4ccc5ncn(C6CCCCC6)c5c4)ccc(c23)C1=O`, the GI50 in the assay on MDA-MB-435 is 2.71 µM; with EKVX NSCLC, 2.05 µM; in the assay on T-47D breast, 3.16 µM; in the assay on UACC-257 melanoma it was 3.19 µM; in the assay on SK-OV-3 ovarian it was 2.59 µM; with BT-549 breast, 3.95 µM. Moreover, the GI50 in the assay on MCF7 breast is 1.56 µM. In addition, the TGI in the assay on MDA-MB-435 came to 11.1 µM; in the assay with EKVX NSCLC it was 7.73 µM; in the assay with T-47D breast, 23.4 µM; in the assay on UACC-257 melanoma, 8.41 µM; with SK-OV-3 ovarian, 8.64 µM; in the assay on BT-549 breast, 16.2 µM. Besides, the TGI with MCF7 breast was found to be 11.1 µM.

Regarding `COc1ccc(NCc2c(O)ccc3ccccc23)cc1`, the TGI is above 100 µM with MDA-MB-435; above 100 µM in the assay with EKVX NSCLC; 55.1 µM with T-47D breast; 44.5 µM in the assay with UACC-257 melanoma; above 100 µM in the assay on SK-OV-3 ovarian; 43.5 µM in the assay with BT-549 breast. The compound also had a TGI in the assay on MCF7 breast above 100 µM.
